Values of other authors, collected in US20120283197A1, “Compositions Comprising a Glucose Anti-Metabolite, BHA, and/or BHT” (priority 2011, published 2012).
Each block holds one compound with its values, some of them ahead of it.

Legend:
[1] = system: cultured insulin secreting cells
[2] = rats, fed for 18 months, 140 mg/Kg body weight per day
adipocytes = conditions: rats, fed for 18 months, 140 mg/Kg body weight per day
[3] = system: hexokinase or other glycolytic enzymes; conditions: extracts of mouse lung
[4] = mice, dogs, and other species

Compound: COc1ccc(O)c(C(C)(C)C)c1 [BHA, butylated hydroxyanisole]
- alloxan-induced increase in insulin secretion [1]: prevent the alloxan-induced increase in insulin secretion
- negative effects of alloxan [1]: blocked the negative effects of alloxan

- effect on hexokinase or other glycolytic enzymes [3]: no effect
Compound: Cc1cc(C(C)(C)C)c(O)c(C(C)(C)C)c1 [BHT, butylated hydroxytoluene]
- insulin sensitivity [2]: increased insulin sensitivity
- age-related reduction in insulin-stimulated glucose transport in adipocytes (adipocytes): partially ameliorated

Compound: O=C(CO)[C@@H](O)[C@@H](O)[C@H](O)[C@H](O)CO [Mannoheptulose, mannoheptulose]
- plasma insulin levels and/or insulin sensitivity [4]: lower plasma insulin levels and/or increase insulin sensitivity
